Measured values as given in patent US20130035326A1 (AMBIT BIOSCIENCES CORPORATION, priority 2009, published 2013).

Legend:
KIT kinase = biological target: T1, KIT kinase (Homo sapiens, UniProt P10721); assay: Competition binding assay, KIT Kd
T1 construct: made in house; host or cells: T7 phage display or HEK-293 cells
Method in brief: (§1)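 Readout: qPCR of kinase eluted from ligand-coated beads. T7 phage-fused or HEK-293-expressed DNA-tagged kinase, 1 h RT equilibration with compound; Kd from 11-pt 3-fold series.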

MV4-11 cells = assay: MV4-11 cell proliferation assay (Alamar Blue); assay type: cell-based; details: Homo sapiens, MV4-11, 72 h, 3 days incubation
Method in brief: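 Flt3-ITD MV4-11 cells were serum-starved overnight in Iscove's with 0.5% FBS, then given compound at 9 half-log concentrations (0.5% DMSO) for 3 days at 37° C. Alamar Blue reduction was read after 3 h by fluorescence (560/590 nm). IC50 is the mean of duplicates versus negative control.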

CSF-1R kinase = biological target: T2, CSF-1R kinase (Homo sapiens, UniProt P07333); assay: Competition binding assay, CSF-1R Kd
T2 construct: made in house; host or cells: T7 phage display or HEK-293 cells
T2 sequence (P07333 20-972): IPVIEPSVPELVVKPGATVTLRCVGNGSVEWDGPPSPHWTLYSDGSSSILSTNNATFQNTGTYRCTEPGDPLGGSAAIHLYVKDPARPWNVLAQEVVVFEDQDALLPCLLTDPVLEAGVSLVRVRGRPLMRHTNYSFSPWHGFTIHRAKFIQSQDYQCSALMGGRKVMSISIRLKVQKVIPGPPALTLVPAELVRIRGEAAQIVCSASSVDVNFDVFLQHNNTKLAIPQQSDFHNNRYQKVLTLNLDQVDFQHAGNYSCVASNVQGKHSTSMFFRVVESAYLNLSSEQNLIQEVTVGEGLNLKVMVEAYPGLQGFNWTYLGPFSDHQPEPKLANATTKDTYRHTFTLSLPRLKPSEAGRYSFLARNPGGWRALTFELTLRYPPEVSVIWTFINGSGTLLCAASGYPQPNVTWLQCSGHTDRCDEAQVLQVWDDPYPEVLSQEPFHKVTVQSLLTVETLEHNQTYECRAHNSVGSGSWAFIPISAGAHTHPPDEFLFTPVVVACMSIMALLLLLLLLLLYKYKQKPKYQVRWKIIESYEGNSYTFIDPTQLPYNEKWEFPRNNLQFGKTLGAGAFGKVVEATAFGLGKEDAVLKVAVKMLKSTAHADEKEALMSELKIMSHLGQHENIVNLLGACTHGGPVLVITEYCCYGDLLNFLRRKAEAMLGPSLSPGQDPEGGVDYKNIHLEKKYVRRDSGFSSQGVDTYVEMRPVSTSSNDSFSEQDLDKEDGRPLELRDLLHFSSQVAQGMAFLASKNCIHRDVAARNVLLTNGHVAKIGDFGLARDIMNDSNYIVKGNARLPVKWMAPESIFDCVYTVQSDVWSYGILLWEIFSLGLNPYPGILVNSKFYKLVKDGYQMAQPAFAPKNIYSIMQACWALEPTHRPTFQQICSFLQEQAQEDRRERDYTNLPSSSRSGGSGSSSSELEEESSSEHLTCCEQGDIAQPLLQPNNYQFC
Method in brief: as §1

FLT3 kinase = biological target: T3, FLT3 kinase (Homo sapiens, UniProt P36888); assay: Competition binding assay, FLT3 Kd
T3 construct: made in house; host or cells: T7 phage display or HEK-293 cells
T3 sequence (P36888 27-993): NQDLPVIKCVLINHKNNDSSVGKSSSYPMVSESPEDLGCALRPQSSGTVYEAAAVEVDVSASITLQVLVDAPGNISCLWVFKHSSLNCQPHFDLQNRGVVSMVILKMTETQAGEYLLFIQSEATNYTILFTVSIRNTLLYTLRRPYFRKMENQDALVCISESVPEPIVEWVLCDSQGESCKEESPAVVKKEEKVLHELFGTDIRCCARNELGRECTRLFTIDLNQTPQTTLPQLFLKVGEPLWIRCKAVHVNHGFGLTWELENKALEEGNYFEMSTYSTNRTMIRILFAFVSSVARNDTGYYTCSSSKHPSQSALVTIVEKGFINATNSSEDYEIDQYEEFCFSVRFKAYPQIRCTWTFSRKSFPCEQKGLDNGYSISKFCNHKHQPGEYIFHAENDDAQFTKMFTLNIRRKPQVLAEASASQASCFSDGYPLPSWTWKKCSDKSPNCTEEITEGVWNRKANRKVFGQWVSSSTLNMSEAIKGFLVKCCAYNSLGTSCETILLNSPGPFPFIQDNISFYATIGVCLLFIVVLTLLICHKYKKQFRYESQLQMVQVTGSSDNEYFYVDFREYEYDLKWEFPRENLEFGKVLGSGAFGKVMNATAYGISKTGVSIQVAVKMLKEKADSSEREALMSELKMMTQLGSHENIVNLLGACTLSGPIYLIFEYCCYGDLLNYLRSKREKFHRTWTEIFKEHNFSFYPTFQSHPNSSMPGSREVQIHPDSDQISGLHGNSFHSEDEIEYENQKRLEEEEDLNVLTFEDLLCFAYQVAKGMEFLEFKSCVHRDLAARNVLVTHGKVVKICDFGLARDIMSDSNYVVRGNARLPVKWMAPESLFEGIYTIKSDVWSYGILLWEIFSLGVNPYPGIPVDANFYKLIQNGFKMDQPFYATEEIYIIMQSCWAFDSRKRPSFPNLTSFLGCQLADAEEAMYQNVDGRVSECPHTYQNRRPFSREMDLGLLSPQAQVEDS
Method in brief: as §1

[1] = biological target: kinase panel containing either 359 or 386 distinct kinases; assay: Selectivity score S10 from competition binding against a panel of kinases; details: compounds at 10 μM; for Kinase specificty: S(10)-359 panel: panel of 359 distinct kinases; for Kinase specificty: S(10)-386 panel: panel of 386 distinct kinases
Method in brief: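 Compounds were tested at 10 μM in competition binding against T7 phage-fused or HEK-293-expressed DNA-tagged kinases with immobilized affinity ligands, 1 h at room temperature. Bound kinase was quantified by qPCR as percent of DMSO control; S10 is the fraction of distinct kinases (mutants excluded) with POC below 10.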

T1 sequence (P10721 26-976): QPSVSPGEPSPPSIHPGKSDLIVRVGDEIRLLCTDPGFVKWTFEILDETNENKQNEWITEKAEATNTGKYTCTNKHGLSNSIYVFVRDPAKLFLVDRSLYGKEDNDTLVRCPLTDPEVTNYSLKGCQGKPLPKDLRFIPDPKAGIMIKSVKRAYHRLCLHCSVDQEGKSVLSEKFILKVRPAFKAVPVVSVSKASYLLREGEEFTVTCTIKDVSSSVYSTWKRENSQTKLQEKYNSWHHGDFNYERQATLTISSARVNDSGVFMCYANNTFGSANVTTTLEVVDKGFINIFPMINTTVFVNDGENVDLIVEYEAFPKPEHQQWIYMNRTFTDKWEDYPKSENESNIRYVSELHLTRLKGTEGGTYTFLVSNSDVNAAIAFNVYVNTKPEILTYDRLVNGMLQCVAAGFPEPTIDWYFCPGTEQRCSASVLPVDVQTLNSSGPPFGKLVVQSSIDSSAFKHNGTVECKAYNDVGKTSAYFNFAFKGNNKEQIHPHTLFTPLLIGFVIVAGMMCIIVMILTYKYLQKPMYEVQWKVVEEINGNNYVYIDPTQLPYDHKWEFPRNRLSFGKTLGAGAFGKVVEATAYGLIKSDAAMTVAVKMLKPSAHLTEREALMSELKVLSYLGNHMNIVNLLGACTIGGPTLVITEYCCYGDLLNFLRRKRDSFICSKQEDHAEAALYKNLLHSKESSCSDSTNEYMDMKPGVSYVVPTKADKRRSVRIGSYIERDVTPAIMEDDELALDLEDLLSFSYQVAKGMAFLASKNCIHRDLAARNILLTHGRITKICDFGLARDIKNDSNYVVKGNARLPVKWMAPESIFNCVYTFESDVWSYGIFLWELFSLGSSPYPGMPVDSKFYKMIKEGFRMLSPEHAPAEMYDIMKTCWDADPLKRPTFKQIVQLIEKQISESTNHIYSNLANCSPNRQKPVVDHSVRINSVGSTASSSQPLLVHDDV

Kd (KIT kinase)	IC50 (MV4-11 cells)	Kd (CSF-1R kinase)	Kd (FLT3 kinase)	Kinase specificty: S(10)-359 panel [1]	Kinase specificty: S(10)-386 panel [1]	Structure (SMILES)
1 to 10 nM	1 to 10 nM	≤ 10 nM	≤ 1 nM	B (0.1<B≦0.2 nM)		CC(C)(C)c1cc(NC(=O)Nc2cc(F)c(-c3ccc(N)nc3)cc2F)no1 [Example 20, 1-(4-(6-aminopyridin-3-yl)-2,5-difluorophenyl)-3-(5-tert-butylisoxazol-3-yl)urea]
1 to 10 nM	1 to 10 nM	10 to 100 nM	≤ 1 nM		A (A≦0.1)	COc1cc(N)ncc1-c1ccc(CC(=O)Nc2cc(C(C)(C)C)on2)cc1 [Example 157]
1 to 10 nM	≤ 1 nM	≤ 10 nM	≤ 1 nM	B (0.1<B≦0.2 nM)		CC(C)(C)c1cc(NC(=O)Nc2ccc(-c3cnc4c(c3)OCC(CCO)N4)cc2)no1 (stereo not drawn) [Example 5, 1-(5-tert-butylisoxazol-3-yl)-3-(4-(3-(2-hydroxyethyl)-3,4-dihydro-2H-pyrido[3,2-b][1,4]oxazin-7-yl)phenyl)urea]
1 to 10 nM	1 to 10 nM	≤ 10 nM	≤ 1 nM		B (0.1<B≦0.2 nM)	CC(C)(C)c1cc(NC(=O)Cc2ccc(-c3ccc(NCCS(C)(=O)=O)nc3)cc2)no1.CS(=O)(=O)O [Example 92, 5-(4-(2-(5-tert-butylisoxazol-3-ylamino)-2-oxoethyl)phenyl)-N-(2-(methylsulfonyl)ethyl)pyridin-2-aminium methanesulfonate]
10 to 100 nM	10 to 100 nM	100 to 500 nM	1 to 10 nM		A (A≦0.1)	CC1(CCNc2ccc(-c3ccc(CC(=O)Nc4cc(C(C)(C)C)on4)cc3)cn2)COC1 [Example 122, N-(5-tert-butylisoxazol-3-yl)-2-(4-(6-(2-(3-methyloxetan-3-yl)ethylamino)pyridin-3-yl)phenyl)acetamide]
≤ 1 nM	≤ 1 nM	≤ 10 nM	≤ 1 nM		B (0.1<B≦0.2 nM)	CC1(c2cc(NC(=O)Cc3ccc(-c4ccc(N)nc4)cc3)no2)CCC1.CS(=O)(=O)O [Example 144, 5-(4-(2-((5-(1-methylcyclobutyl)isoxazol-3-yl)amino)-2-oxoethyl)phenyl)pyridin-2-aminium methanesulfonate]
1 to 10 nM	> 500 nM	10 to 100 nM	1 to 10 nM	A (A≦0.1)		CC(C)(C)c1cc(NC(=O)Nc2ccc(-c3ccc(N)nc3)s2)no1 [Example 19, 1-(5-(6-aminopyridin-3-yl)thiophen-2-yl)-3-(5-tert-butylisoxazol-3-yl)urea]
1 to 10 nM	1 to 10 nM	≤ 10 nM	≤ 1 nM		A (A≦0.1)	CC(C)(C)c1cc(NC(=O)Nc2ccc(-c3ccc(NCCN4CCC(F)(F)CC4)nc3)cc2)no1.CS(=O)(=O)O [Example 107, 1-(2-((5-(4-(3-(5-(tert-butyl)isoxazol-3-yl)ureido)phenyl)pyridin-2-yl)amino)ethyl)-4,4-difluoropiperidin-1-ium methanesulfonate]
1 to 10 nM	10 to 100 nM	10 to 100 nM	1 to 10 nM	B (0.1<B≦0.2 nM)		CC(C)(C)c1cc(NC(=O)Nc2ccc(-c3ccc(N)nc3)cc2Cl)no1 [Example 15, 1-(4-(6-aminopyridin-3-yl)-2-chlorophenyl)-3-(5-tert-butylisoxazol-3-yl)urea]
